Assay results reported in patent US20210100777A1, “HEAT SHOCK PROTEIN (HSP) INHIBITION AND MONITORING EFFECTIVENESS THEREOF” (H. LEE MOFFITT CANCER CENTER AND RESEARCH INSTITUTE, INC., priority 2013, published 2021).

Columns and labels:
[1] = system: vemurafenib resistant melanoma cell lines grown as 3D collagen implanted spheroids; assay: 3D spheroid assay; assay type: cell-based; conditions: 1 μM, 144 hours
Procedure: 3D spheroid assays. Melanoma spheroids were prepared using the liquid overlay method (Smalley et al. Mol Cancer Ther. 5: 1136-1144 (2006)). Spheroids were treated for 144 hours with either vehicle or 1 μM XL888 before being washed (3 times in media) and treated with calcein-AM and ethidium bromide (Molecular Probes, Eugene, Oreg.) for 1 hour at 37° C., to according to the manufacturer's instructions. Pictures of the invading spheroids were taken using a Nikon-300 inverted fluorescence microscope.

melanoma cell lines = assay: Colony formation assay; assay type: cell-based; conditions: 300 nM, up to 4 weeks; any of the cell lines
Procedure: Colony formation. Cells (1×10^4 per ml) were grown overnight before being treated with vehicle (DMSO) or XL888 (300 nM) for 4 weeks as described in (Paraiso et al., Br. J. Cancer 102:1724-30 (2010)), and relative colony density was determined by solubilizing the crystal violet dye in 10% acetic acid followed by measurement of absorbance at 450 nm.

CC[C@@H](C)Nc1cc(C(=O)N[C@@H]2C[C@H]3CC[C@@H](C2)N3c2ccc(C(=O)C3CC3)cn2)c(C)cc1C(N)=O [XL888, 5-((R)-sec-butylamino)-N1-((1R,3s,5S)-8-(5-(cyclopropanecarbonyl)pyridin-2-yl)-8-azabicyclo[3.2.1]octan-3-yl)-2-methylterephthalamide]
cell death in 3D spheroids [1]: effective at inducing cell death | colony formation (melanoma cell lines): no signs of colony formation
